Entries after “also recorded” stand apart in the source; their conditions may differ. Read-outs that look alike come from different tables or passages of the source.
Columns and labels:
mu-opioid receptor (MOR) = mu-opioid receptor (MOR) (Homo sapiens (Human), UniProt P35372); test: cell-based
B6 mice = test: Tail-flick test; format: in vivo, mouse
Method: In an exemplary in vivo method, a test compound and a MOR antagonist are injected into a mouse pain model (for example, intravenous but not limited), basal latencies are recorded before the treatment and test latencies are recorded at various specified times after the injection, and a time-response curve is recorded and AUC values are calculated to determine whether an analgesic effect is exerted on the mouse. The test compound is confirmed to be an antagonist-to-agonist allosteric modifier of the MOR upon observation of an analgesic effect.
Male wild-type (WT) B6 mice (25-30 g) were kept in a temperature-controlled animal room with a 12-h light/dark cycle. The protocol has been approved by the Institutional Animal Care and Use Committee of the National Health Research Institutes, Taiwan. Animal experiments were carried out in accordance with the Policies on the Use of Animals in Neuroscience Research and the ethical guidelines for investigations of experimental pain in conscious animals, International Association for the Study of Pain. Tail-Flick Analgesia Meter (Columbia Instruments) was used to measure the tail-flick latencies of mice. The cut-off time for each measurement was 10 s to avoid tissue damage. Basal latencies were recorded before treatment and test latencies were recorded 30, 60, 90, 120 and 180 min after an intravenous injection of drugs. […] ED50 values were determined by the up-and-down method reported in Crocker et al., Pharmacol Biochem Behav, 1984, 21, 133-136.
An in vivo study, i.e., tail-flick test, was performed to investigate whether AAMs could change innate character of μ-opioid receptor in the presence of naloxone. […] In mice injected with naloxone (10 mg/kg; s.c.), the ED50 value of compound 58 in inhibition of the tail-flick response was determined to be 23.1±7.1 nmole.

mu-opioid receptor (MOR), sequence (P35372 whole entry): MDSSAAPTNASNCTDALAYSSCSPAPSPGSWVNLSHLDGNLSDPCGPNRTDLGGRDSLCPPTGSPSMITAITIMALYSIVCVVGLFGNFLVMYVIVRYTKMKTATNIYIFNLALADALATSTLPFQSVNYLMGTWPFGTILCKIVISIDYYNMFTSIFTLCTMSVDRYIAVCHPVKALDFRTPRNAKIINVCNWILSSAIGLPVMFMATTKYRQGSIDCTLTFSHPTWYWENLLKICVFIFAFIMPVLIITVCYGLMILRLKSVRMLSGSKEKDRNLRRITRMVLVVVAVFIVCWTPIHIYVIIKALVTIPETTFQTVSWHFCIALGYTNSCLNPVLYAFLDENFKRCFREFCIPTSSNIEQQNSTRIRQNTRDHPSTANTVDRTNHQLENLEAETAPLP

**Q.** Which results are given for `Cc1cc(C(=O)O)ccc1N1C(=O)CSC1c1ccc(F)cc1` (centres unmarked)?
**A.** EC50 (mu-opioid receptor (MOR); co-administrated with naloxone (20 nM), read-out: EC50 of calcium release): 1300 nM; activity combined with peptide MOR antagonist CTOP (mu-opioid receptor (MOR); combination with CTOP): no activity was observed; AUC (mu-opioid receptor (MOR); combined with Cyprodime hydrochloride 500 nM): 7893; EC50 (mu-opioid receptor (MOR); combined with Cyprodime hydrochloride 500 nM, read-out: EC50): 5120 ± 2520 nM; AUC (mu-opioid receptor (MOR); combined with Nalmefene 20 nM): 8506; AUC (mu-opioid receptor (MOR); combined with Naloxonazine dihydrochloride 20 nM): 11819.33; EC50 (mu-opioid receptor (MOR); combined with Naloxonazine dihydrochloride 20 nM, read-out: EC50): 642 nM; AUC (mu-opioid receptor (MOR); combined with Naltrexone 20 nM): 12980.33; EC50 (mu-opioid receptor (MOR); combined with Naltrexone 20 nM, read-out: EC50): 630 ± 217 nM; AUC (mu-opioid receptor (MOR); combined with Samidorphan 10 nM): 13179; EC50 (mu-opioid receptor (MOR); combined with Samidorphan 10 nM, read-out: EC50): 5530 nM; AUC (mu-opioid receptor (MOR); combined with Samidorphan 20 nM): 14094; EC50 (mu-opioid receptor (MOR); combined with Samidorphan 20 nM, read-out: EC50): 5270 nM; FLIPR Ca^2+ AUC (mu-opioid receptor (MOR); combined with a MOR antagonist): 16361; EC50 (mu-opioid receptor (MOR); combined with a MOR antagonist, read-out: FLIPR Ca^2+ EC50): 1100 nM; AAM effect with naltrexone (mu-opioid receptor (MOR); combined with naltrexone, compared with naloxone): worked as an AAM of naltrexone, with similar potency but a higher magnitude of efficacy; calcium release in the presence of an opioid antagonist (mu-opioid receptor (MOR); combined with one of the listed opioid antagonists): induced significant calcium release; AUC (mu-opioid receptor (MOR); combined with β-Funaltrexamine hydrochloride 20 nM): 8553.5; EC50 (mu-opioid receptor (MOR); combined with β-Funaltrexamine hydrochloride 20 nM, read-out: EC50): 346 ± 209 nM; response on its own (calcium release) (mu-opioid receptor (MOR); compound alone, no antagonist): did not show responses on their own; also recorded: did not elicit any response on its own; effect on Emax and potency of morphine (PAM/NAM test) (mu-opioid receptor (MOR); morphine CRC with compound at 30, 10, 3.3 μM): neither Emax nor potency of morphine was significantly altered; calcium release in the presence of naloxone (mu-opioid receptor (MOR); naloxone (25 nM)): induced a significant calcium release; effect on concentration-response curve of naloxone (Emax, potency) (mu-opioid receptor (MOR); naloxone CRC with compound at different concentrations): both Emax and potency of naloxone were altered; AUC of tail-flick inhibition (B6 mice; 12.5 nmole i.t. with naloxone (10 mg/kg; s.c.)): 241.5±111.3 min×s; AUC of tail-flick inhibition (B6 mice; 25 nmole i.t. with naloxone (10 mg/kg; s.c.)): 560.6±96.5 min×s; AUC of tail-flick inhibition (B6 mice; 50 nmole i.t. with naloxone (10 mg/kg; s.c.)): 649.8±123.3 min×s; antinociceptive effect, compound alone (B6 mice; B6 mice, 50, 25, 12.5 and 6.25 nmole i.t., no naloxone): didn't exhibit any antinociceptive effects; ED50 in inhibition of the tail-flick response (B6 mice; mice injected with naloxone (10 mg/kg; s.c.), compound i.t.): 23.1 ± 7.1 nmol; antinociception effect in mice injected with saline (B6 mice; saline, highest dose 50 nmole i.t.): no antinociception effect was observed

Source: patent publication US10544113B2 (priority 2016, dated 2020)
